What was measured:
[1] = tested on: CD4+ T cells from T1N donors; experiment: In vitro peptide stimulation of CD4+ T cells with peptide-loaded fixed T2DQ6 cells, then DQ6-peptide tetramer staining; type: cell-based, human; conditions: for Frequency of corresponding DQ6-peptide tetramer+/CD4+ T cells after in vitro stimulation with the peptide: T2DQ6 pulsed with 1 μM peptide, co-culture with CD4+ T cells of T1N donors, IL-7/IL-2, with vs without peptide, n = 13 donors (HCRT peptides)
Protocol: Fig. 3 Tetramer^+/CD4^+ T cells in DQ6^+ donors. a Dot-plots of CD4^+ T cells stimulated in vitro with the indicated peptides followed by staining with the indicated tetramers. Frequencies (%) of tetramer^+/CD4^+ T cells are indicated. b Comparison between frequencies of tetramer^+ T cells from the same T1N donor (paired as indicated) with and without peptide stimulation. Significance (P < 0.05, bolded) is determined using the paired samples t-test (n = 13 donors). c Enrichment (with peptide stimulation vs. without) of DQ6-HCRT56–69 tetramer^+/CD4^+ T cells in HCRT87–100 peptide stimulated culture. d Frequencies or e tetramer-binding ranks (mean index fluorescence intensity) of tetramer^+ T cells from patients and controls (sample information summarized in Table 1) stained with the indicated tetramers. Statistical analysis compares control and patient samples within each tetramer specificity. Significance (P < 0.05, bolded) is determined using the unequal variance t-test. The error bar represents mean ± SEM
To test for the presence of DQ6-HCRTpeptide tetramer^+/CD4^+ T cells, a peptide-loaded antigen-presenting cell (APC) line T2DQ6 (fixed to limit APC proliferation) was co-cultured with T cells for DQ6-restricted antigen stimulation. T2DQ6 was constructed by stable transfection of DQ6 (DQA1*01:02/DQB1*06:02) into T2, a class II-deficient TxB hybrid cell[31]. T2DQ6 cells were maintained in IMDM, GlutaMAX supplemented media (Thermo Fisher Scientific) with 10% HI FBS, 1% penicillin/streptomycin (P/S) and 1 mg/ml G418 (to maintain selective pressure on DQ6 transfectants). To load antigen, T2DQ6 cells were pulsed with peptides (i.e., EBV486–500, HCRT56–69, HCRT87–100, synthesized by Genscript) at 1 μM final concentration and incubated for 6 h at 37 °C. After peptide loading, 10 million T2DQ6 cells were washed with phosphate buffered saline (PBS) and then fixed by incubating with 0.025% glutaraldehyde in 2 ml PBS at RT for 30 s. After the addition of another 2 ml PBS, the cells were incubated for another 10 min at RT. Fixed T2DQ6 was washed twice with PBS and once with complete RPMI (RPMI 1640 medium supplemented with 10% HI human AB serum, 2 mM glutamine and 1% PS, Thermo Fisher Scientific) before mixing with CD4^+ T cells. Human PBMCs frozen in NUNC tubes were thawed quickly at 37 °C and added slowly to 10 ml warm complete RPMI. PBMCs were pelleted and resuspended in cold buffer for CD4^+ T cell isolation. Cells were isolated from the PBMCs by negative selection, using the CD4^+ cell isolation kit, according to the manufacturer’s instructions (Miltenyi Biotec). […]

[2] = target: soluble DQ6 (HLA-DQA1*01:02/DQB1*06:02) (Homo sapiens, UniProt P01909+P01920, A157G/A45G/C70R/E118A/E183D/E77G/F83G/G63E/H151Q/H199R/H252R/H253Q/I129T/I235V/I88M/INS77G/K197Q/L117V/L119F/L178F/L71W/L74F/L85Q/L91A/L98M/N214S/P87R/Q116E/Q76K/R102G/R240Q/R75S/R78G/S102Y/S185I/S41F/S97I/T121G/T122I/T172A/T86R/V229M/V68A/V73E/Y34C/Y41F/Y58L); experiment: Peptide competition assay: inhibition of DQ6 binding of biotinylated EBV486–500; conditions: test peptide 40 μM, 20 h
Protocol: To identify DQ6-restricted T epitopes in prepro-HCRT (the HCRT precursor), we used a modified version of the peptide-loading assay[31] in which HCRT peptides were tested for the ability to inhibit DQ6-binding of EBV486–500, a known DQ6-binding epitope derived from Epstein-Bar virus. We evaluated overlapping 15-mer peptides, offset by four amino acids (aa), covering the entire prepro-HCRT sequence (Supplementary Data 1). […] These were consistent with in silico peptide-binding predictions using the NetMHCIIpan3.2 software[33] (Supplementary Fig. 1a–c). The nine peptides span five regions (i–v) of prepro-HCRT. A strong binder (>75% competition), HCRT1–15, was within the signal peptide region (i) and contained a 9-aa core, […], previously shown to bind DQ6 by X-ray structure. Two overlapping peptides span the C-terminus of the signal peptide and N-terminus of the secreted HCRT1 neurotransmitter. This region (ii) contained three possible registers as predicted by NetMHCIIpan3.2 using nonamers (Supplementary Fig. 1d). […]
Fig. 2 DQ6-binding cores in prepro-HCRT and their structural impacts. a Thirty overlapping peptides covering prepro-HCRT were added, individually, into a reaction containing soluble DQ6, bio-EBV486–500 peptide, and HLA-DM (a peptide loading catalyst). DQ6-associated bio-EBV486–500 was measured at steady state by ELISA[31]. %Competition = 1−%DQ6/EBV binding. […]

[3] = tested on: TCR27 (TRAJ24+ TCR) in J76-NFATRE-luc Jurkat cells; experiment: T cell activation assay using NFAT-RE luciferase reporter, TCR27 Jurkat transfectants with K562-DQ6 APCs; type: cell-based, human; design: dose or concentration left out as unconfirmed; conditions: HCRT peptide, 1 × 10^5 K562-DQ6 APCs + 1 × 10^5 TCR27 J76-NFATRE-luc cells, 37 °C, 1 day; Nano-Glo chemiluminescence
From the text: Fig. 6 Validation of tetramer binding and TCR signaling. a TCRs tested by transfection into Jurkat-luciferase reporter system. b Dot-plots of Jurkat transfectants expressing TCRs as shown in a. Expression of GFP indicates a successful transfection of plasmids directing the expression of TCRs. c Tetramer staining of TCR^+ Jurkat cells with percentages of tetramer^+ cells indicated. d MFIs of the tetramer-associated signal on the surface of TCR^+ cells are compared. e Jurkat cells expressing the indicated TCR were incubated with DQ6-expressing APCs (HLA class II^- K562 cells transfected with DQ6) in the presence of HCRT peptides or control stimuli: PBS (negative) or anti-CD3/anti-CD28 Abs (positive). Luciferase activity reflecting TCR-mediated signaling was measured and analyzed as previously described. […] Significance (P < 0.05, bolded) is determined using t-test comparing the indicated TCR and the TCR control
To encode the entire α/β chains of a candidate TCR, the nucleotide sequences for CDR3α and CDR3β (Supplementary Data 3) were incorporated in frame with the corresponding V(D)J genes (IMGT/V-QUEST[43]). TCRα/β genes were then synthesized and cloned into a plasmid pEF1a-TCRA_2A_TCRB_IRES-AcGFP1 (by GenScript). Each reconstructed plasmid uses a mammalian promoter, EF1a to direct co-expression of α and β chains of one candidate TCR. TCRA and TCRB are separated by the 2A self-cleaving peptide sequence. For selection purposes, the plasmid also encodes the green fluorescence protein (GFP) and neomycin resistance gene, with expression driven by separate promoters. […]
The TCR transfectants of J76-NFATRE-luc cells expresses the NFAT-RE (response element)-luciferase reporter gene allowing the conversion of T cell activation signaling to luciferase activity. […] The co-culture was incubated with various stimuli at 37 °C for 1 day before quantification of the luciferase activity. […] The mixture was then transferred to a flat-bottom white 96-well plate (Costar) for a measurement of chemiluminescence using a plate reader.

## AGNHAAGILTLGKR [HCRT56–69]
[1]
  Frequency of corresponding DQ6-peptide tetramer+/CD4+ T cells after in vitro stimulation with the peptide: significantly increased

## ALLSSGAAAQPLPDC [Hcrt25-39, 15-mer overlapping peptide of prepro-HCRT]
[2]; same assay as E1, pH 4.6, 37 °C
  DQ6 binder class by %Competition: strong

## EBV486-500: known DQ6-binding epitope derived from Epstein-Barr virus nuclear antigen; positive control peptide [reference compound]
[1]
  Frequency of corresponding DQ6-peptide tetramer+/CD4+ T cells after in vitro stimulation with the peptide: enrichment

## MNLPSTKVSWAAV [HCRT1–13]
[3]
  TCR-mediated signaling (luciferase activity) of TCR27 transfectants: null function

## MNLPSTKVSWAAVTL [Hcrt1-15, 15-mer overlapping peptide of prepro-HCRT]
[2]; 1 μM biotinylated EBV486–500, 25 nM thrombin-cleaved DQ6-CLIP87–101, 100 nM DM, acetate pH 4.6, 37 °C, DELFIA Eu-streptavidin time-resolved fluorescence, %Competition = 1−%DQ6/EBV binding, mean, n = 4
  %Competition (inhibition of the indicator EBV peptide binding to DQ6): > 75%

## SGNHAAGILTM-NH2 [HCRT87–97-NH2]
[3]
  TCR-mediated signaling (luciferase activity) of TCR27 transfectants: stronger signaling

## SGNHAAGILTMGRR [HCRT87–100]
[3]
  TCR-mediated signaling (luciferase activity) of TCR27 transfectants: moderate TCR-mediated signaling
[1]
  Frequency of corresponding DQ6-peptide tetramer+/CD4+ T cells after in vitro stimulation with the peptide: significantly increased
[1]; with peptide stimulation vs without, some T1N donors
  DQ6-HCRT56–69 tetramer+/CD4+ T cells in HCRT87–100 peptide stimulated culture: in vitro enrichment
